From patent US9108941B2, “Griseofulvin analogues for the treatment of cancer by inhibition of centrosomal clustering” (DEUTSCHES KREBSFORSCHUNGSZENTRUM STIFTUNG DES OEFFENTLICHEN …, priority 2008, dated 2015)

How the values were obtained:
[1] = tested on: GFP-α-tubulin expressing SCC114 cells; assay: Treatment of GFP-α-tubulin expressing SCC114 cells with griseofulvin analogues (inhibition of centrosomal clustering); format: cell-based; conditions: Homo sapiens, Table 1, analogues diluted 100 micromolar to 10 nanomolar
Experimental: Cell Culture. All cell lines were cultured in Dulbecco's modified Eagle's Medium (DMEM; PAA Laboratories, Pasching, Austria) supplemented with 10% FCS (PAA). SCC114 cells stably expressing GFP-α-tubulin were generated by transfection (Eugene 6, Roche Diagnostics, Mannheim, Germany) of the transgene in pEGFP-C1 (Clontech, Heidelberg, Germany) and maintained under selective pressure by addition of geniticin (Invitrogen, Karlsruhe, Germany) Primary normal human epidermal keratinocytes (NHEK; PromoCell, Heidelberg, Germany) were cultured in Keratinocyte Growth Medium 2 (PromoCell). When indicated a griseofulvin analogue was added to the culture medium. The griseofulvin analogue was dissolved in DMSO (Sigma). In all experiments, the final DMSO concentration was 0.1%.
Treatment of GFP-α-tubulin expressing SCC114 cells with griseofulvin analogues. Analogues were dissolved in DMSO/water and diluted to span a concentration range of 100 micromolar to 10 nanomolar.

| Structure (SMILES) | IC50 [1] | melting point |
| --- | --- | --- |
| COc1cc(OC)c2c(c1Cl)O[C@]1(C2=O)C(OCc2ccccc2I)=CC(=O)C[C@H]1C [Compound 4, (2S,6′R)-(7-Chloro-4,6-dimethoxy-benzofuran-3-one)-2-spiro-1′-(2′-(2-iodobenzyloxy)-6′-methyl-cyclohex-2′-ene-4′-one)] | 5.8 µM | 167 to 169 °C |
| COc1cc(OC)c2c(c1Cl)O[C@]1(C2=O)C(Oc2ccccc2)=CC(=O)C[C@H]1C [Compound 10, (2S,6′R)-(7-Chloro-4,6-dimethoxy-benzofuran-3-one)-2-spiro-1′-(6′-methyl-2′-phenoxy-cyclohex-2′-ene-4′-one)] | 1.5 µM |  |
| CCCOC1=C(I)C(=O)C[C@@H](C)[C@]12Oc1c(Cl)c(OC)cc(OC)c1C2=O [Compound 11, (2S,6′R)-(7-Chloro-4,6-dimethoxy-benzofuran-3-one)-2-spiro-1′-(3′-iodo-6′-methyl-2′-propoxy-cyclohex-2′-ene-4′-one)] | 2.1 µM | 98 to 100 °C |
| COc1cc(OC)c2c(c1Cl)O[C@]1(C2=O)C(OCc2ccc(CO)cc2)=CC(=O)C[C@H]1C [Compound 6, (2S,6′R)-(7-Chloro-4,6-dimethoxy-benzofuran-3-one)-2-spiro-1′-(6′-methyl-2′-(4-hydroxymethylbenzyloxy)-cyclohex-2′-ene-4′-one)] | 1.2 µM |  |
| COc1cc(OC)c2c(c1Cl)O[C@]1(C2=O)C(OCc2cccc(I)c2)=CC(=O)C[C@H]1C [Compound 3, (2S,6′R)-(7-Chloro-4,6-dimethoxy-benzofuran-3-one)-2-spiro-1′-(2′-(3-iodobenzyloxy)-6′-methyl-cyclohex-2′-ene-4′-one)] |  | 171 to 174 °C |
| COc1cc(OC)c2c(c1Cl)O[C@]1(C2=O)C(OCc2ccc(-c3ccccc3)cc2)=CC(=O)C[C@H]1C [Compound 9, (2S,6′R)-(7-Chloro-4,6-dimethoxy-benzofuran-3-one)-2-spiro-1′-(2′-(4-biphenylmethoxy)-6′-methyl-cyclohex-2′-ene-4′-one)] | 3.2 µM |  |
| COc1cc(OC)c2c(c1Cl)O[C@]1(C2=O)C(OCc2ccc(CBr)cc2)=CC(=O)C[C@H]1C [Compound 7, (2S,6′R)-(7-Chloro-4,6-dimethoxy-benzofuran-3-one)-2-spiro-1′-(6′-methyl-2′-(4-bromo-methylbenzyloxy)-cyclohex-2′-ene-4′-one)] | 4.7 µM |  |
| COc1cc(OC)c2c(c1Cl)O[C@]1(C2=O)C(OCc2ccc(Cl)cc2)=CC(=O)C[C@H]1C [Compound 1, (2S,6′R)-(7-Chloro-4,6-dimethoxy-benzofuran-3-one)-2-spiro-1′-(2′-(4-chlorobenzyloxy)-6′-methyl-cyclohex-2′-ene-4′-one)] | 3.4 µM | 173 to 175 °C |
| COc1cc(OC)c2c(c1Cl)O[C@]1(C2=O)C(OCc2ncc(C)c([N+](=O)[O-])c2C)=CC(=O)C[C@H]1C [Compound 8, (2S,6′R)-(7-Chloro-4,6-dimethoxy-benzofuran-3-one)-2-spiro-1′-(6′-methyl-2′-((3,5-dimethyl-4-nitro-pyrid-2-yl)methyloxy)-cyclohex-2′-ene-4′-one)] | 9.1 µM |  |
| COc1cc(OC)c2c(c1Cl)O[C@]1(C2=O)C(OCc2ccc(I)cc2)=CC(=O)C[C@H]1C [Compound 2, (2S,6′R)-(7-Chloro-4,6-dimethoxy-benzofuran-3-one)-2-spiro-1′-(2′-(4-iodobenzyloxy)-6′-methyl-cyclohex-2′-ene-4′-one)] | 3.3 µM | 166 to 168 °C |
| COc1cc(OC)c2c(c1Cl)O[C@]1(C2=O)C(OCc2ccc(C)cc2)=CC(=O)C[C@H]1C [Compound 5, (2S,6′R)-(7-Chloro-4,6-dimethoxy-benzofuran-3-one)-2-spiro-1′-(6′-methyl-2′-(4-methylbenzyloxy)-cyclohex-2′-ene-4′-one)] | 0.9 µM | 176 to 178 °C |
